{"source": "patent US4013507A", "about": "“Ionene polymers for selectively inhibiting the vitro growth of malignant cells” (California Institute of Technology, priority 1975, dated 1977)", "key": {"[1]": {"assay": "Protective action of heparin against toxicity of 6,3-ionene bromide, mice", "type": "in vivo", "text": "(§1) This is not surprising considering the formation of relatively stable complexes between ionenes and heparin."}, "[2]": {"assay": "Protective action of heparin against toxicity of 6,3-ionene bromide, dogs", "type": "in vivo", "text": "as §1"}, "[3]": {"assay": "in vivo", "settings": "mouse", "text": "Due to the high positive charge density and high water solubility, ionenes strongly interact with a wide variety of cell materials."}, "[4]": {"system": "DNA", "settings": "polyamines, general knowledge; cited from earlier work"}, "[5]": {"assay": "Repeated-dose tolerance of PC-6 and cyclophosphamide in mice", "type": "in vivo", "settings": "similar doses to nine doses of 100 mg/kg per day"}, "[6]": {"assay": "i.v. LD50 of clinically used antiheparin agents (comparison)", "text": "Protamine sulfate and toluidine blue, neither of which are free of toxic effects, are clinically used as antiheparin agents."}, "[7]": {"system": "L1210 leukemia system", "settings": "when quaternized; J. Med. Chem. 10, 706, 1967; cited from earlier work"}, "[8]": {"system": "sulfhydryl groups on the cell periphery", "assay": "Effect of N-ethylmaleimide pretreatment on cell adhesion to ionene-coated surface", "type": "cell-based", "settings": "pretreatment of the cells", "text": "Chemical interaction with DNA is also a possibility. In fact, ionenes form strong waterinsoluble complexes with DNA."}}}
{"molecule": "Heparin", "values": [{"measurement": "Survival of mice pretreated with heparin", "setting": "[1]; 6,3-ionene bromide doses relative to LD50, heparin pretreatment", "value": "survive doses three times the LD50 values with only mild toxicity symptoms"}, {"measurement": "Protective action in neutralizing the toxicity of 6,3-ionene bromide", "setting": "[1]; mice", "value": "offers a protective action in neutralizing the toxicity of 6,3-ionene bromide"}, {"measurement": "Protective action in neutralizing the toxicity of 6,3-ionene bromide", "setting": "[2]", "value": "offers a protective action in neutralizing the toxicity of 6,3-ionene bromide"}]}
{"molecule": "C[N+](C)(CBr)CCCC[N+](C)(C)CBr", "values": [{"measurement": "LD50", "setting": "[3]; ip", "value": "> 1000", "unit": "mg/kg"}, {"measurement": "LD50", "setting": "[3]; po", "value": "> 1000", "unit": "mg/kg"}]}
{"molecule": "C[N+](C)(CCBr)CCCCCC[N+](C)(C)CCBr", "values": [{"measurement": "LD50", "setting": "[3]; ip", "value": "10 to 50", "unit": "mg/kg"}, {"measurement": "LD50", "setting": "[3]; po", "value": "100 to 200", "unit": "mg/kg"}]}
{"molecule": "NCCCNCCCCNCCCN", "note": "[Spermine, NH2 (CH2)3 NH(CH2)4 NH(CH2)3 NH2]", "values": [{"measurement": "Binding to DNA", "setting": "[4]", "value": "bind to DNA"}]}
{"molecule": "C[N+]1(C)CC[N+](C)(C)CC1", "values": [{"measurement": "LD50", "setting": "[3]; ip", "value": "> 1000", "unit": "mg/kg"}, {"measurement": "LD50", "setting": "[3]; po", "value": "> 1000", "unit": "mg/kg"}]}
{"molecule": "O=P1(N(CCCl)CCCl)NCCCO1", "note": "(stereo not drawn) [cyclophosphamide]", "values": [{"measurement": "Lethality of similar doses", "setting": "[5]", "value": "lethal within a much shorter time"}]}
{"molecule": "Protamine sulfate", "values": [{"measurement": "i.v. LD50", "setting": "[6]; i.v., comparison agents, species not given", "value": 44, "unit": "mg/kg"}]}
{"molecule": "C[N+](C)(CBr)CCCCCC[N+](C)(C)CBr", "values": [{"measurement": "LD50", "setting": "[3]; ip", "value": "10 to 50", "unit": "mg/kg"}, {"measurement": "LD50", "setting": "[3]; po", "value": "300 to 500", "unit": "mg/kg"}]}
{"molecule": "O=C(Nc1ccc(-c2ccncc2)cc1)c1ccc(C(=O)Nc2ccc(-c3ccncc3)cc2)cc1", "values": [{"measurement": "Effectiveness against L1210 leukemia system", "setting": "[7]", "value": "very effective against the L1210 leukemia system when quaternized"}]}
{"molecule": "NCCCCNCCCN", "note": "[Spermidine, NH2 (CH2)3 --NH--(CH2)4 NH2]", "values": [{"measurement": "Binding to DNA", "setting": "[4]", "value": "bind to DNA"}]}
{"molecule": "Cc1cc2nc3ccc(N(C)C)cc3[s+]c2cc1N", "note": "[toluidine blue]", "values": [{"measurement": "LD50", "setting": "[6]; in vivo, iv", "value": 45, "unit": "mg/kg"}]}
{"molecule": "CCN1C(=O)C=CC1=O", "note": "[N-ethylmaleimide (NEM), N-ethylmaleimide]", "values": [{"measurement": "Effect on cell adhesion on an ionene-coated surface", "setting": "[8]", "value": "inhibited cell adhesion on an ionene-coated surface"}]}
